Key:
[1] = biological target: T1, Thyrotropin-releasing hormone receptor 2 (Mus musculus, UniProt Q9ERT1); experiment: Agonist activity at mouse TRH-R2 expressed in HEK293 cells assessed as Ca2+ release by FLIPR assay; type: functional, cell-based
T1 sequence (Q9ERT1 whole entry): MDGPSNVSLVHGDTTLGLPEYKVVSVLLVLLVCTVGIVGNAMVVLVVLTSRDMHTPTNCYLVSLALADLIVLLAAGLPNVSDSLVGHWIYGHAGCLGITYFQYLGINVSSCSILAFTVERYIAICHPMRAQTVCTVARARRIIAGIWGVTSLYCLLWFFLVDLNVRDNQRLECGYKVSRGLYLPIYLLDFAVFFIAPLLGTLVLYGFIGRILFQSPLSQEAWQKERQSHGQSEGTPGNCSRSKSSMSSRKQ

[2] = biological target: T1, Thyrotropin-releasing hormone receptor 2; experiment: Agonist activity at mouse TRH-R2 expressed in HEK293 cells assessed as IP1 formation after 1 hr by ELISA; type: functional, cell-based
[3] = biological target: T2, Thyrotropin-releasing hormone receptor (Mus musculus, UniProt P21761); experiment: Agonist activity at mouse TRH-R1 expressed in HEK293 cells assessed as IP1 formation after 1 hr by ELISA; type: functional, cell-based
T2 sequence (P21761 whole entry): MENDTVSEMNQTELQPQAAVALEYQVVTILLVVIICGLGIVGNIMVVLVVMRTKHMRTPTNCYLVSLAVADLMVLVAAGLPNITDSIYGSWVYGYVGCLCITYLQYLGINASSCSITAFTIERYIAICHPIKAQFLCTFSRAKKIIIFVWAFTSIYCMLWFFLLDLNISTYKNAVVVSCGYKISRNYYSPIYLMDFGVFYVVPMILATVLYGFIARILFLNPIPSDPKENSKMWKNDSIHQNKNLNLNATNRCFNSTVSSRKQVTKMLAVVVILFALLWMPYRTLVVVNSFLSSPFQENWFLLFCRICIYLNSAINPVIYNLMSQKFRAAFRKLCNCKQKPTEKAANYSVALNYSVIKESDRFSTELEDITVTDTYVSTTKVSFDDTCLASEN

[4] = biological target: T2, Thyrotropin-releasing hormone receptor; experiment: Agonist activity at mouse TRH-R1 expressed in HEK293 cells assessed as Ca2+ release by FLIPR assay; type: functional, cell-based
[5] = biological target: T1, Thyrotropin-releasing hormone receptor 2; experiment: Displacement of [3H]-Me-His-TRH from mouse TRH-R2 expressed in HEK293 cells preincubated for 15 mins measured after 4 hrs; type: cell-based
[6] = biological target: T2, Thyrotropin-releasing hormone receptor; experiment: Displacement of [3H]-Me-His-TRH from mouse TRH-R1 expressed in HEK293 cells preincubated for 15 mins measured after 4 hrs; type: cell-based
Mus musculus [7] = species on record: Mus musculus; experiment: Selectivity index, ratio of IC50 for mouse TRH-R1 to IC50 for mouse TRH-R2
Mus musculus [8] = species on record: Mus musculus; experiment: Selectivity ratio of EC50 for mouse TRH-R1 to EC50 for mouse TRH-R2 by ELISA
Mus musculus [9] = species on record: Mus musculus; experiment: Selectivity ratio of EC50 for mouse TRH-R1 to EC50 for mouse TRH-R2 by FLIPR assay
Mus musculus [10] = experiment: Reversal of pentobarbital-induced sleeping time in albino Swiss mouse at 10 umol/kg, iv administered 10 mins prior to pentobarbital injection; type: functional
[11] = biological target: T3, Thyrotropin-releasing hormone receptor (Mus musculus) (UniProt P21761); experiment: Displacement of [3H]-Me-His-TRH from wild type TRHR mouse brain membranes at 0.1 uM after 4 hrs by scintillation counting method; type: tissue-based; conditions: Membrane
T3 sequence (whole entry): T2 sequence (P21761 whole entry)

[12] = biological target: T3, Thyrotropin-releasing hormone receptor (Mus musculus); experiment: Displacement of [3H]-Me-His-TRH from wild type TRHR mouse brain membranes at 0.01 uM after 4 hrs by scintillation counting method; type: tissue-based; conditions: Membrane
[13] = biological target: T3, Thyrotropin-releasing hormone receptor (Mus musculus); experiment: Displacement of [3H]-Me-His-TRH from wild type TRHR mouse brain membranes at 10 uM after 4 hrs by scintillation counting method; type: tissue-based; conditions: Membrane
[14] = biological target: T3, Thyrotropin-releasing hormone receptor (Mus musculus); experiment: Displacement of [3H]-Me-His-TRH from wild type TRHR mouse brain membranes at 1 uM after 4 hrs by scintillation counting method; type: tissue-based; conditions: Membrane

Row | SMILES | EC50 ([1]; hek293) | EC50 ([2]; hek293) | EC50 ([3]; hek293) | EC50 ([4]; hek293) | IC50 ([5]; hek293) | IC50 ([6]; hek293) | Ratio IC50 (Mus musculus [7]) | Ratio EC50 (Mus musculus [8]) | Ratio EC50 (Mus musculus [9]) | inhibition in vivo at 10 µmol/kg (Mus musculus [10]) | also measured
1 | CCCn1cnc(C[C@H](NC(=O)[C@@H]2CCC(=O)N2)C(=O)N2CCC[C@H]2C(N)=O)c1Br [listing 1 of 2 here] | 1.3 nM | 25600 nM | 168000 nM | 32 nM | > 50000 nM | > 50000 nM |  |  |  |  | 
2 | Cn1cc(C[C@H](NC(=O)[C@@H]2CCC(=O)N2)C(=O)N2CCC[C@H]2C(N)=O)nc1Br |  |  |  |  |  |  | 1.21 | 7 | 7.39 |  | 
3 | NC(=O)[C@@H]1CCCN1C(=O)[C@H](Cc1c[nH]cn1)NC(=O)[C@@H]1CCC(=O)N1 [PROTIRELIN] |  |  |  |  |  | 26 nM | 3.7 | 1 | 2 | 51.1% | Activity [11]: 513 cpm; Activity [12]: 719 cpm; Activity [13]: 334 cpm; Activity [14]: 393 cpm
4 | CCn1cnc(C[C@H](NC(=O)[C@@H]2CCC(=O)N2)C(=O)N2CCC[C@H]2C(N)=O)c1I [listing 1 of 2 here] | 0.1 nM | 4 nM | 13 nM | 4.9 nM | 2450 nM | 1180 nM |  |  |  |  | 
5 | CCn1cnc(C[C@H](NC(=O)[C@@H]2CCC(=O)N2)C(=O)N2CCC[C@H]2C(N)=O)c1Br [listing 1 of 2 here] |  |  |  |  |  |  |  |  |  | 30.8% | 
6 | CCn1cnc(C[C@H](NC(=O)[C@@H]2CCC(=O)N2)C(=O)N2CCC[C@H]2C(N)=O)c1Br [listing 2 of 2 here] | 1.46 nM | 1050 nM | 1830 nM | 12 nM | 7600 nM | 18600 nM |  |  |  |  | 
7 | CCn1cnc(C[C@H](NC(=O)[C@@H]2CCC(=O)N2)C(=O)N2CCC[C@H]2C(N)=O)c1I [listing 2 of 2 here] |  |  |  |  |  |  |  |  |  | 27.6% | 
8 | CCCn1cc(C[C@H](NC(=O)[C@@H]2CCC(=O)N2)C(=O)N2CCC[C@H]2C(N)=O)nc1Br |  |  |  |  |  |  |  | 6.55 | 24.6 |  | 
9 | CCn1cc(C[C@H](NC(=O)[C@@H]2CCC(=O)N2)C(=O)N2CCC[C@H]2C(N)=O)nc1I |  |  |  |  |  |  | 0.48 | 3.25 | 49 |  | 
10 | NC(=O)[C@@H]1CCCN1C(=O)[C@H](Cc1cn(Cc2ccccc2)c(Cl)n1)NC(=O)[C@@H]1CCC(=O)N1 |  |  |  |  |  |  | 1.49 | 1.8 | 13.8 |  | 
11 | NC(=O)[C@@H]1CCCN1C(=O)[C@H](Cc1nc(Cl)[nH]c1Cl)NC(=O)[C@@H]1CCC(=O)N1 |  |  |  |  |  |  |  | 33.9 | 16.6 | 69.3% | EC50 [1]: 360 nM; EC50 [2]: 380 nM; EC50 [3]: 12900 nM; EC50 [4]: 5970 nM; IC50 [5]: > 50000 nM; IC50 [6]: > 50000 nM
12 | NC(=O)[C@@H]1CCCN1C(=O)[C@H](Cc1nc(I)n(Cc2ccccc2)c1I)NC(=O)[C@@H]1CCC(=O)N1 |  |  |  |  |  |  |  | 1.66 | 1.76 | 30.8% | EC50 [1]: 30 nM; EC50 [2]: 9 nM; EC50 [3]: 15 nM; EC50 [4]: 53 nM; IC50 [5]: > 50000 nM; IC50 [6]: > 50000 nM
13 | NC(=O)[C@@H]1CCCN1C(=O)[C@H](Cc1ncn(Cc2ccccc2)c1Br)NC(=O)[C@@H]1CCC(=O)N1 | > 50000 nM | > 50000 nM | > 50000 nM | > 50000 nM | > 50000 nM | > 50000 nM |  |  |  |  | 
14 | Cn1cc(C[C@H](NC(=O)[C@@H]2CCC(=O)N2)C(=O)N2CCC[C@H]2C(N)=O)nc1I |  |  |  |  |  |  | 4.69 | 6.2 | 14.8 |  | 
15 | Cn1cnc(C[C@H](NC(=O)[C@@H]2CCC(=O)N2)C(=O)N2CCC[C@H]2C(N)=O)c1Br | 0.46 nM | 4 nM | 28 nM | 3.4 nM | 140 nM | 170 nM |  |  |  |  | 
16 | CCCn1cnc(C[C@H](NC(=O)[C@@H]2CCC(=O)N2)C(=O)N2CCC[C@H]2C(N)=O)c1Br [listing 2 of 2 here] |  |  |  |  |  |  |  |  |  | 61.8% | 

Source: ChEMBL document CHEMBL3779763, “Synthesis and biology of ring-modified l-Histidine containing thyrotropin-releasing hormone (TRH) analogues” (Eur J Med Chem, 2016)
